Reference: the CheMixHub viscosity set
Where “and” joins values, the source holds several entries; their conditions need not be identical. Identical values can stand only once. ± gives the uncertainty stated by the source.

What was measured:
[1] = xn = mol fraction of the nth substance listed

C1CC[NH2+]C1.CCCCCCCC(=O)[O-]
101 kPa
Conditions	viscosity [mPa·s]
293.15 K	72.2 ± 15
298.15 K	62.71 ± 13
303.15 K	50.21 ± 10
308.15 K	42.89 ± 8.7
313.15 K	35.27 ± 7.1

CC(=O)O.CC(=O)[O-].CC[NH+](CC)CCO
101 kPa
Conditions	viscosity [mPa·s]
293.15 K	110.4 ± 3.1
298.15 K	80.19 ± 2.1
303.15 K	59.63 ± 1.6
308.15 K	45.32 ± 1.2
313.15 K	35.12 ± 0.92
318.15 K	27.71 ± 0.73
323.15 K	22.22 ± 0.58

CC(O)CC(C)(C)O (stereo not drawn)
101 kPa
Conditions	viscosity
308.15 K	20.29 ± 2 mPa·s and 20.37 ± 2 mPa·s
318.15 K	17.79 ± 1.8 mPa·s and 17.73 ± 1.8 mPa·s

CCC(C)O (stereo not drawn)
viscosity
Conditions	293.15 K	298.15 K	303 K	303.15 K	308.15 K	318.15 K	323.15 K
100 kPa	4.036 ± 0.012 mPa·s	–	–	–	–	–	1.626 ± 0.0049 mPa·s
101 kPa	–	–	–	2.742 ± 0.022 mPa·s and 2.27 ± 0.6 mPa·s and 2.741 ± 0.032 mPa·s	2 ± 0.6 mPa·s and 2.179 ± 0.034 mPa·s	1.58 ± 0.6 mPa·s and 1.566 ± 0.025 mPa·s	1.41 ± 0.6 mPa·s
101.3 kPa	–	–	–	3.177 ± 0.036 mPa·s	2.582 ± 0.016 mPa·s	–	–
101.33 kPa	3.647 ± 0.032 mPa·s	2.925 ± 0.035 mPa·s and 2.857 ± 0.025 mPa·s	2.195 ± 0.23 mPa·s	2.417 ± 0.029 mPa·s and 2.741 ± 0.032 mPa·s	2.034 ± 0.2 mPa·s and 2.011 ± 0.024 mPa·s	1.62 mPa·s	–

CCCCOCCOCCO
viscosity
Conditions	298.15 K	303.15 K	308.15 K	318.15 K
100 kPa	5.11 ± 0.15 mPa·s	4.345 ± 0.15 mPa·s	3.872 ± 0.15 mPa·s	–
101 kPa	4.877 ± 0.065 mPa·s	–	3.582 ± 0.048 mPa·s	2.943 ± 0.038 mPa·s
101.33 kPa	5.232 ± 0.057 mPa·s and 5.232 ± 0.12 mPa·s	–	–	–

CCCCn1cc[n+](C)c1.F[B-](F)(F)F
viscosity
Conditions	293.15 K	295.2 K	303.15 K	308.15 K	313.15 K	318.15 K	323.15 K
101 kPa	133.5 ± 4.5 mPa·s and 127.6 ± 8.5 mPa·s	122.9 ± 19 mPa·s	–	65 ± 1.3 mPa·s and 61.5 ± 7.9 mPa·s and 58.36 ± 3.5 mPa·s	52.2 ± 1.1 mPa·s and 50.52 ± 0.74 mPa·s and 46.22 ± 2.8 mPa·s	42.6 ± 0.9 mPa·s and 38.72 ± 2.3 mPa·s	34.52 ± 0.56 mPa·s
101.33 kPa	125.3 ± 19 mPa·s	–	81.85 ± 3.4 mPa·s and 87.7 ± 13 mPa·s	63.57 ± 2.6 mPa·s and 72.5 ± 11 mPa·s	57.7 ± 8.7 mPa·s	–	34.8 ± 1.4 mPa·s

CCC[n+]1ccn(C)c1C.O=S(=O)([N-]S(=O)(=O)C(F)(F)F)C(F)(F)F
Conditions	viscosity [mPa·s]
298.15 K, 101 kPa	85.6 ± 2.5

Cc1ccc(O)cc1
Conditions	viscosity
293.15 K, 101 kPa	18.95 ± 0.32 mPa·s
298.15 K, 101 kPa	13.93 ± 0.99 mPa·s and 14.74 ± 0.24 mPa·s
313.15 K, 101.3 kPa	6.661 ± 0.081 mPa·s
318.15 K, 101 kPa	5.795 ± 0.48 mPa·s and 5.292 ± 0.039 mPa·s (2×)
323.15 K, 101.3 kPa	4.48 ± 0.056 mPa·s
323.15 K, 101.33 kPa	4.62 ± 0.046 mPa·s

Cc1cccc(C)c1
Conditions	viscosity
293.15 K, 100 kPa	0.614 ± 0.03 mPa·s
293.15 K, 101 kPa	0.5522 ± 0.0085 mPa·s and 0.627 ± 0.013 mPa·s
298.15 K, 101 kPa	0.5821 ± 0.0073 mPa·s and 0.5848 ± 0.016 mPa·s
298.15 K, 101.3 kPa	0.586 ± 0.016 mPa·s and 0.58 ± 0.016 mPa·s
303 K, 101 kPa	0.5456 ± 0.0046 mPa·s and 0.5455 ± 0.0046 mPa·s
303.15 K, 101.3 kPa	0.543 ± 0.015 mPa·s and 0.548 ± 0.015 mPa·s and 0.5471 ± 0.015 mPa·s
303.15 K, 101.33 kPa	0.555 ± 0.006 mPa·s
308.15 K, 100 kPa	0.4712 ± 0.057 mPa·s
308.15 K, 101 kPa	0.5329 ± 0.0055 mPa·s
308.15 K, 101.3 kPa	0.519 ± 0.015 mPa·s
308.15 K, 101.33 kPa	0.5218 ± 0.0067 mPa·s and 0.542 ± 0.004 mPa·s and 0.527 ± 0.005 mPa·s
308.5 K, 101 kPa	0.547 ± 0.015 mPa·s
313 K, 101 kPa	0.4931 ± 0.0042 mPa·s and 0.492 ± 0.0042 mPa·s
313.15 K, 100 kPa	0.492 ± 0.03 mPa·s
313.15 K, 101 kPa	0.4463 ± 0.0073 mPa·s and 0.522 ± 0.014 mPa·s and 0.4923 ± 0.0091 mPa·s
313.15 K, 101.3 kPa	0.49 ± 0.014 mPa·s
323 K, 101 kPa	0.4487 ± 0.0039 mPa·s
323.15 K, 101 kPa	0.3949 ± 0.0068 mPa·s and 0.4488 ± 0.013 mPa·s
323.15 K, 101.3 kPa	0.439 ± 0.013 mPa·s

Cc1ccccc1N
viscosity
Conditions	298.15 K	303.15 K	308.15 K	313.15 K	318.15 K
100 kPa	3.718 ± 0.079 mPa·s	3.258 ± 0.065 mPa·s and 3.258 ± 0.07 mPa·s and 3.26 ± 0.1 mPa·s	2.824 ± 0.064 mPa·s and 2.824 ± 0.061 mPa·s and 2.82 ± 0.09 mPa·s	2.487 ± 0.063 mPa·s and 2.487 ± 0.053 mPa·s and 2.49 ± 0.08 mPa·s	2.153 ± 0.063 mPa·s and 2.153 ± 0.047 mPa·s and 2.15 ± 0.07 mPa·s
101 kPa	3.645 ± 0.097 mPa·s	3.1 ± 0.08 mPa·s	–	–	–

ClC(Cl)(Cl)c1ccccc1
Conditions	viscosity [mPa·s]
298.15 K, 101.33 kPa	2.18 ± 0.019

NCCCO
101 kPa
Conditions	viscosity [mPa·s]
303.15 K	24.12 ± 0.43
308.15 K	18.98 ± 0.34
318.15 K	12.35 ± 0.51

Nc1ccccc1Cl
viscosity
Conditions	298.15 K	303.15 K	308.15 K	313.15 K	318.15 K
100 kPa	4.209 ± 0.089 mPa·s	3.825 ± 0.081 mPa·s	3.413 ± 0.072 mPa·s	3.06 ± 0.065 mPa·s	2.762 ± 0.059 mPa·s
101 kPa	2.973 ± 0.029 mPa·s and 2.974 ± 0.027 mPa·s	–	–	–	–

O=S(=O)(Cl)Cl
Conditions	viscosity [mPa·s]
298.15 K, 101 kPa	0.685 ± 0.018

O=S1(=O)CCCC1
Conditions	viscosity
298.15 K, 101.3 kPa	10.28 ± 0.13 mPa·s
308.15 K, 100 kPa	8.795 ± 0.17 mPa·s
308.15 K, 101.3 kPa	8.258 ± 0.11 mPa·s
318.15 K, 101 kPa	7.18 ± 0.72 mPa·s and 7.17 ± 0.74 mPa·s and 6.912 ± 0.037 mPa·s
318.15 K, 101.3 kPa	6.256 ± 0.085 mPa·s
323.15 K, 101.33 kPa	6.346 ± 0.032 mPa·s

OC1COCOC1
101 kPa
Conditions	viscosity
298.15 K	13.11 ± 0.29 mPa·s
308.15 K	8.963 ± 0.2 mPa·s
318.15 K	6.508 ± 0.15 mPa·s and 6.58 ± 0.15 mPa·s

c1ccc2sccc2c1
101 kPa
Conditions	viscosity [mPa·s]
308.15 K	2.94 ± 0.4
318.15 K	2.06 ± 0.13

Cc1ccc(O)cc1 + c1ccccc1
[1], 308.15 K, 101 kPa
Conditions	viscosity [mPa·s]
x1 = 0.0751	0.6025 ± 0.0052
x1 = 0.1778	0.749 ± 0.0063
x1 = 0.292	0.9762 ± 0.008
x1 = 0.4109	1.327 ± 0.011
x1 = 0.532	1.87 ± 0.015
x1 = 0.6653	2.706 ± 0.021
x1 = 0.7851	4.175 ± 0.031
x1 = 0.8374	4.963 ± 0.037
x1 = 0.9459	7.462 ± 0.051

O=S1(=O)CCCC1 + c1ccccc1
viscosity [mPa·s], [1]
Conditions	303.15 K	313.15 K	323.15 K
101 kPa, x1 = 0.0944	0.7133 ± 0.0063	0.6194 ± 0.0056	0.5441 ± 0.005
101 kPa, x1 = 0.1855	0.8992 ± 0.0086	0.7737 ± 0.0075	0.6751 ± 0.0067
101 kPa, x1 = 0.2522	1.074 ± 0.011	0.9112 ± 0.0096	0.7919 ± 0.0084
101 kPa, x1 = 0.2849	1.162 ± 0.013	0.9889 ± 0.011	0.8556 ± 0.0095
101 kPa, x1 = 0.3829	1.504 ± 0.019	1.267 ± 0.016	1.085 ± 0.014
101 kPa, x1 = 0.4835	1.976 ± 0.029	1.648 ± 0.024	1.396 ± 0.02
101 kPa, x1 = 0.5905	2.694 ± 0.045	2.202 ± 0.037	1.855 ± 0.031
101 kPa, x1 = 0.6841	3.563 ± 0.067	2.879 ± 0.054	2.388 ± 0.045
101 kPa, x1 = 0.7917	5.014 ± 0.11	3.996 ± 0.084	3.267 ± 0.069
101 kPa, x1 = 0.8956	7.129 ± 0.17	5.619 ± 0.13	4.505 ± 0.11
101.3 kPa, x2 = 0.1417	6.075 ± 0.13	–	3.928 ± 0.088
101.3 kPa, x2 = 0.2777	4.003 ± 0.09	–	2.676 ± 0.061
101.3 kPa, x2 = 0.3972	2.826 ± 0.064	–	1.95 ± 0.046
101.3 kPa, x2 = 0.5062	2.066 ± 0.048	–	1.468 ± 0.035
101.3 kPa, x2 = 0.6063	1.571 ± 0.037	–	1.137 ± 0.028
101.3 kPa, x2 = 0.6976	1.2 ± 0.029	–	0.8791 ± 0.022
101.3 kPa, x2 = 0.7823	0.9625 ± 0.024	–	0.717 ± 0.019
101.3 kPa, x2 = 0.8602	0.786 ± 0.02	–	0.5933 ± 0.016
101.3 kPa, x2 = 0.9327	0.652 ± 0.017	–	0.5029 ± 0.014

Cc1ccc(O)cc1 + c1ccncc1
viscosity [mPa·s], [1], 101 kPa
Conditions	x1 = 0.163	x1 = 0.2353	x1 = 0.3282	x1 = 0.3907	x1 = 0.4666	x1 = 0.527	x1 = 0.6065	x1 = 0.6911	x1 = 0.7846	x1 = 0.881
293.15 K	1.451 ± 0.014	1.808 ± 0.018	2.535 ± 0.025	3.105 ± 0.032	4.215 ± 0.046	5.315 ± 0.06	7.365 ± 0.086	10.04 ± 0.13	13.24 ± 0.19	16.16 ± 0.25
303.15 K	1.363 ± 0.013	1.628 ± 0.015	2.115 ± 0.021	2.565 ± 0.025	3.31 ± 0.03	4.08 ± 0.04	5.265 ± 0.057	6.635 ± 0.077	7.97 ± 0.1	9.26 ± 0.13
313.15 K	1.139 ± 0.011	1.37 ± 0.013	1.727 ± 0.017	2.065 ± 0.02	2.6 ± 0.025	3.115 ± 0.03	3.83 ± 0.038	4.66 ± 0.05	5.415 ± 0.055	6.02 ± 0.06
